Experimental data reported in US20100204460A1, “NATURAL BRASSINOSTEROIDS FOR USE FOR TREATING HYPERPROLIFERATION, TREATING PROLIFERATIVE DISEASES AND REDUCING ADVERSE EFFECTS OF STEROID DYSFUNCTION IN MAMMALS, PHARMACEUTICAL COMPOSITION AND ITS USE” (priority 2007, published 2010).
pIC50: −log10 of the molar value.

Columns and labels:
Format in all cases: cell-based
MCF-7 cells = assay: Western blot of cell cycle and apoptosis related proteins, MCF-7; conditions: for MDM-2 expression (Western blot) / expression of apoptosis related proteins (Bcl-2 family, caspase-3 activation) (Western blot) / p21Waf1/Cip1 expression (Western blot) / p27Kip1 expression (Western blot) / p53 expression (Western blot): IC50 for 6, 12, 24 h vs untreated control; for retinoblastoma protein (Rb) expression, phosphorylated and dephosphorylated forms (Western blot): vs untreated control
Description: The cells were seeded in a density 1.6×10^4 cells/cm^2 (LNCaP), 1.4×10^4 cells/cm^2 (DU-145, MDA-MB-468 and MCF-7) using culture medium in 100-mm culture Petri dishes. After reaching of 70-80% confluence, the cells were treated with tested compounds 9 in concentration IC50 that were evaluated by MTT analysis described above. DMSO was used as a vehicle for controls. After 6, 12 and 24 h treatment, the cells were washed with cold PBS and scraped in ice-cold protein extract ion buffer (50 mM HEPES, pH 7.5; 150 mM NaCl; 1 mM EDTA; 2.5 mM EGTA; 10% glycerol; 0.1% Tween 20) with protease and phosphatase inhibitors (25 μL/mL phenylmethanesulphonyl fluoride; 2.5 μL/mL leupeptin; 0.1 mM Na3VO4; 2.5 μL/mL aprotinin; 10 mM β-glycerol-phosphate; 1 mM dithiothreitol). The lysates were collected into microfuge tube and incubated on ice for 1 h. Cells were incubated 60 min at 4° C. under time by time shaking in protein extraction buffer. After centrifugation at 45 000×g for 30 min at 4° C., supernatant was collected, aliquoted, and stored at −80° C. The protein content in the lysates was measured by a Bredford assay (Bio-Rad Laboratories, Hercules, Calif., USA) according to the manufacture's protocol.
For Western blot analysis, equal aliquots of proteins (15-30 μg/well) were loaded on 10% or 12% SDS-PAGE gels and transferred onto nitrocellulose membranes (Amersham Biosciences, Vienna, Austria) by semi-dry electrophoretic transfer. Coloured marker (Rainbow™, Amersham Biosciences, Vienna, Austria) was used as a protein molecular weight standard. The non-specific binding sites were blocked by incubating the blot with 5% (w/v) non-fat dry milk in PBS for 2 h. The blot was incubated overnight in 4° C. with appropriate primary antibody that detects the protein epitope of interest and finally washed in PBS with 0.1% Tween 20 for 1 h. The blot was incubated with the diluted secondary goat anti-mouse IgG-horseradish peroxidase conjugated antibody (dilution 1:6000, Santa Cruz Biotechnology, Santa Cruz, Calif., USA) or goat anti-rabbit IgG-horseradish peroxidase conjugated antibody (dilution 1:2000, DakoCytomation, Glostrup, Denmark) for 45 min in 4° C. The membrane was washed in PBS with 0.1% Tween 20 for 1 h. The proteins were detected using a chemiluminescence detection system (Amersham Biosciences, Vienna, Austria) according to the protocol provided by the manufacturer. Equality of loaded proteins was confirmed by Ponceau S membrane staining (Sigma, St. Louis, Mo., USA) and by detection of anti-tubulin-α or anti-mcm-7 antibodies. The experiments were repeated three times. The protein expressions in treated cells were compared to untreated controls.
Western blot analysis was used to detect changes in apoptosis related protein expression in breast and prostate cancer cell lines. […] This decreased expression of Bid can indicate a cleavage of the protein after treatment by BRs. In DU-145 cell line, expression of pro-apoptotic proteins Bax and Bid was unchanged. […] On the other hand, caspase cleavage was not found in DU-145 cells. Poly-(ADP-ribose) polymerase (PARP) positive expression in controls of prostate cancer cell lines was observed but brassinosteroids had no effect on its expression nor on its degradation within the period 6/12/24 h (FIG. 6B).

MDA-MB-468 cells = assay: TUNEL detection of apoptosis, MDA-MB-468; conditions: IC50 concentration, control 0.0 ± 0.0
Description: TdT-Mediated dUTP nick end labeling (TUNEL) detection of apoptosis index. For detection of apoptotic cells, the TUNEL assay was used. […] After period of treatment, the cells were washed with PBS and fixed on the slides with cold acetone-methanol (1:1, v/v) for 10 min. Apoptosis-induced nuclear DNA fragmentation was detected by terminal deoxynucleotidyl transferase-mediated UTP nick end labeling (TUNEL) technique according to the producer protocol (In Situ Cell Death Detection Kit; Roche Diagnostics, Mannheim, Germany). The cells were then washed three times in PBS and stained with 4′-6-diamidino-2-phenylindole (DAPI; 50 μg/ml; Sigma, St. Louis, Mo., USA) for 10 min in the dark. The coverslips with cells were washed in deionized water and mounted on glass slides, using the hydrophilic medium Mowiol (Calbiochem, Fremont, Calif., USA) in glycerol-PBS (1:3, v/v) for fluorescence. Cells were visualized using fluorescence microscopy and compared with control cells. TUNEL staining achieved to confirm apoptosis in all cell lines.

[1] = tested on: normal human fibroblasts (BJ); assay: Calcein AM cytotoxicity assay, BJ; conditions: BJ normal fibroblasts; exposure 72 h (b71 says 96 h); mean ± SD; read-out: IC50 assessed by Calcein AM assay of surviving cells

Compound	MDM-2 expression (Western blot) (MCF-7 cells)	expression of apoptosis related proteins (Bcl-2 family, caspase-3 activation) (Western blot) (MCF-7 cells)	p21Waf1/Cip1 expression (Western blot) (MCF-7 cells)	p27Kip1 expression (Western blot) (MCF-7 cells)	p53 expression (Western blot) (MCF-7 cells)	retinoblastoma protein (Rb) expression, phosphorylated and dephosphorylated forms (Western blot) (MCF-7 cells)	percentage of TUNEL positive cells (MDA-MB-468 cells; 6 h) [%]	percentage of TUNEL positive cells (MDA-MB-468 cells; 12 h) [%]	percentage of TUNEL positive cells (MDA-MB-468 cells; 24 h) [%]	pIC50 [1]	cyclin D1 expression (Western blot) (MCF-7 cells; 6/12/24 h vs untreated control)
CC[C@@H](C(C)C)[C@@H](O)[C@H](O)[C@@H](C)[C@H]1CC[C@H]2[C@@H]3CC(=O)[C@H]4C[C@H](O)[C@H](O)C[C@]4(C)[C@H]3CC[C@]12C [Brassinosteroid 9, 28-Homocastasterone]	decreased expression of MDM-2 regulator of p53 degradation after all time points	no significant changes in expression of Bcl-2 family protein nor caspase-3 activation	increase in p21^Waf1/Cip1 and p27^Kip1 expression after 6 h	increase in p21^Waf1/Cip1 and p27^Kip1 expression after 6 h	after 6 h exposition to brassinosteroids 9 or 6 a slight increase	decreased	1.7 ± 0.6	2.3 ± 0.6	4.3 ± 0.6	< 4.30	–
CC(C)[C@@H](C)[C@@H](O)[C@H](O)[C@@H](C)[C@H]1CC[C@H]2[C@@H]3COC(=O)[C@H]4C[C@H](O)[C@H](O)C[C@]4(C)[C@H]3CC[C@]12C [Brassinosteroid 6, 24-Epibrassinolide]	decreased expression of MDM-2 regulator of p53 degradation after all time points	no significant changes in expression of Bcl-2 family protein nor caspase-3 activation	unchanged	decrease after 6 and 12 h	after 6 h exposition to brassinosteroids 9 or 6 a slight increase	decreased	4.7 ± 0.6	16.7 ± 4.7	18.3 ± 3.0	< 4.30	decreased expression of cyclin D1
